For 14 compounds, IC50 results are on record in patent US10745382B2 (BRISTOL-MYERS SQUIBB COMPANY, priority 2015, dated 2020).

Where two headings read alike, the source gives them in different places.

The assay deals with T1, PD-1/PD-L1 (Homo sapiens, UniProt Q9NZQ7).
T1 construct: made in house; host or cells: HEK293T
Description: PD-1/PD-L1 Homogenous Time-Resolved Fluorescence (HTRF) binding assay. The note with it: PD-L1-His 10 nM, PD-1-Ig 20 nM, read-out: Range or IC50. Summed up: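 Read-out is time-resolved FRET between europium cryptate-labelled anti-Ig (1 nM final) and APC-labelled anti-His (20 nM final), both dispensed onto the binding mix. Assay buffer: dPBS containing 0.1% bovine serum albumin and 0.05% Tween-20.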
Background: TR-FRET usually uses a lanthanide donor and a delayed reading to cut background.

T1 sequence (Q9NZQ7 with tags, fused parts or gaps): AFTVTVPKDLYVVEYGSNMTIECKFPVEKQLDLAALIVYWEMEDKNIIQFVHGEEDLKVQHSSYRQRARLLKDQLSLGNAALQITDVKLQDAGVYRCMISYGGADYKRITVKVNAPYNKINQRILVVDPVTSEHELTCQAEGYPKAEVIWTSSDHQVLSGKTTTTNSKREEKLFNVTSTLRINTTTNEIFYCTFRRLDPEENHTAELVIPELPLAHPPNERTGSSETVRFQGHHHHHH

For `Cc1c(COc2cc(OCc3cncc(C(N)=O)c3)c(CN[C@](C)(CO)C(=O)O)cc2Cl)cccc1-c1cccc(OCCCN2CCC(CO)(C(=O)O)CC2)c1C` [Example 1113, (R)-1-(3-((3′-((5-((5-carbamoylpyridin-3-yl)methoxy)-4-(((2-carboxy-1-hydroxypropan-2-yl)amino)methyl)-2-chlorophenoxy)methyl)-2,2′-dimethyl-[1,1′-biphenyl]-3-yl)oxy)propyl)-4-(hydroxymethyl)piperidine-4-carboxylic Acid], the IC50 (in general, the concentration at which inhibition is half-maximal) (value given as range class) fell in the range of 0.21 to 10 nM.
On the same count and under the same terms, for `Cc1c(COc2cc(OCc3cncc(C(N)=O)c3)c(CN3CCCC[C@H]3C(=O)O)cc2Cl)cccc1-c1cccc(OCCCN2CCC(CO)(C(=O)O)CC2)c1Cl` [Example 1114, (S)-1-(2-((5-carbamoylpyridin-3-yl)methoxy)-4-((3′-(3-(4-carboxy-4-(hydroxymethyl)piperidin-1-yl)propoxy)-2′-chloro-2-methyl-[1,1′-biphenyl]-3-yl)methoxy)-5-chlorobenzyl)piperidine-2-carboxylic Acid] the value was 0.21 to 10 nM.
`Cc1c(COc2cc(OCc3cncc(C#N)c3)c(CN[C@](C)(CO)C(=O)O)cc2Cl)cccc1-c1cccc(OCCCN2CCC(CO)(C(=O)O)CC2)c1Cl` [Example 1115, (R)-1-(3-((3′-((4-(((2-carboxy-1-hydroxypropan-2-yl)amino)methyl)-2-chloro-5-((5-cyanopyridin-3-yl)methoxy)phenoxy)methyl)-2-chloro-2′-methyl-[1,1′-biphenyl]-3-yl)oxy)propyl)-4-(hydroxymethyl)piperidine-4-carboxylic Acid]: the IC50 (value given as range class) lay in the range of 0.21 to 10 nM.
Still for that read-out and setting: for `Cc1c(COc2cc(OCc3cncc(C(N)=O)c3)c(CN[C@](C)(CO)C(=O)O)cc2Cl)cccc1-c1cccc(OCCCN2CCC(CO)(C(=O)O)CC2)c1Cl` [Example 1116, (R)-1-(3-((3′-((5-((5-carbamoylpyridin-3-yl)methoxy)-4-(((2-carboxy-1-hydroxypropan-2-yl)amino)methyl)-2-chlorophenoxy)methyl)-2-chloro-2′-methyl-[1,1′-biphenyl]-3-yl)oxy)propyl)-4-(hydroxymethyl)piperidine-4-carboxylic Acid] the value was 0.21 to 10 nM; for `CCOC(=O)C1(CO)CCN(CCCOc2cccc(-c3cccc(COc4cc(OCc5cncc(C#N)c5)c(CNC(C)(CO)CO)cc4Cl)c3C)c2Cl)C1` (centres unmarked) [Example 1117, ethyl 1-(3-((2-chloro-3′-((2-chloro-5-((5-cyanopyridin-3-yl)methoxy)-4-(((1,3-dihydroxy-2-methylpropan-2-yl)amino)methyl)phenoxy)methyl)-2′-methyl-[1,1′-biphenyl]-3-yl)oxy)propyl)-3-(hydroxymethyl)pyrrolidine-3-carboxylate], 0.21 to 10 nM.
Turning to `Cc1c(COc2cc(OCc3cncc(C#N)c3)c(CNC(C)(CO)CO)cc2Cl)cccc1-c1cccc(OCCCN2CCC(CO)(C(=O)O)C2)c1Cl` (centres unmarked) [Example 1118, 1-(3-((2-chloro-3′-((2-chloro-5-((5-cyanopyridin-3-yl)methoxy)-4-(((1,3-dihydroxy-2-methylpropan-2-yl)amino)methyl)phenoxy)methyl)-2′-methyl-[1,1′-biphenyl]-3-yl)oxy)propyl)-3-(hydroxymethyl)pyrrolidine-3-carboxylic Acid], for the setting “value given as range class”, the IC50 was in the range of 10 to 100 nM.
Same read-out and setting: for `Cc1c(COc2cc(OCc3cncc(C#N)c3)c(CN[C@](C)(CO)C(=O)O)cc2Cl)cccc1-c1cccc(OCCCN2CC[C@@H](O)C2)c1Cl` [Example 1121, (R)-2-((5-Chloro-4-((2′-chloro-3′-(3-((R)-3-hydroxypyrrolidin-1-yl)propoxy)-2-methyl-[1,1′-biphenyl]-3-yl)methoxy)-2-((5-cyanopyridin-3-yl)methoxy)benzyl)amino)-3-hydroxy-2-methylpropanoic Acid] the value was 0.21 to 10 nM.
Regarding `Cc1c(COc2cc(OCc3cncc(C#N)c3)c(C=O)cc2Cl)cccc1-c1cccc(OCCCN2CC[C@@H](O)C2)c1Cl` [Example 1509, (R)-5-((4-chloro-5-((2′-chloro-3′-(3-(3-hydroxypyrrolidin-1-yl)propoxy)-2-methyl-[1,1′-biphenyl]-3-yl)methoxy)-2-formylphenoxy)methyl)nicotinonitrile], for the setting “numeric IC50”, the IC50 was 12 nM.
Take `Cc1c(COc2cc(OCc3cncc(C#N)c3)c(CN3CCCC[C@H]3C(=O)O)cc2Cl)cccc1-c1cccc(OCCCN2CC[C@@H](O)C2)c1Cl` [Example 1510, (S)-1-(5-chloro-4-((2′-chloro-3′-(3-((R)-3-hydroxypyrrolidin-1-yl)propoxy)-2-methyl-[1,1′-biphenyl]-3-yl)methoxy)-2-((5-cyanopyridin-3-yl)methoxy)benzyl)piperidine-2-carboxylic acid]: the IC50 (value given as range class) is 0.21 to 10 nM.
Still for that read-out and setting: the value for `Cc1c(COc2cc(OCc3cncc(C#N)c3)c(CN[C@@](C)(CO)C(=O)O)cc2Cl)cccc1-c1cccc(OCCCN2CC[C@@H](O)C2)c1Cl` [Example 1511, (S)-2-((5-chloro-4-((2′-chloro-3′-(3-((R)-3-hydroxypyrrolidin-1-yl)propoxy)-2-methyl-[1,1′-biphenyl]-3-yl)methoxy)-2-((5-cyanopyridin-3-yl)methoxy)benzyl)amino)-3-hydroxy-2-methylpropanoic acid] was 0.21 to 10 nM; that for `Cc1c(COc2cc(OCc3cncc(C#N)c3)c(CN[C@H](CO)C(=O)O)cc2Cl)cccc1-c1cccc(OCCCN2CC[C@@H](O)C2)c1Cl` [Example 1512, (R)-2-((5-chloro-4-((2′-chloro-3′-(3-((R)-3-hydroxypyrrolidin-1-yl)propoxy)-2-methyl-[1,1′-biphenyl]-3-yl)methoxy)-2-((5-cyanopyridin-3-yl)methoxy)benzyl)amino)-3-hydroxypropanoic acid] was 0.21 to 10 nM.
On the same count and under the same terms, the value for `Cc1c(COc2cc(OCc3cncc(S(C)(=O)=O)c3)c(CN3CCCC[C@H]3C(=O)O)cc2Cl)cccc1-c1cccc(OCCCN2CC[C@@H](O)C2)c1Cl` [Example 1513, (S)-1-(5-chloro-4-((2′-chloro-3′-(3-((R)-3-hydroxypyrrolidin-1-yl)propoxy)-2-methyl-[1,1′-biphenyl]-3-yl)methoxy)-2-((5-(methylsulfonyl)pyridin-3-yl)methoxy)benzyl)piperidine-2-carboxylic acid] was 10 to 100 nM.
As to `Cc1c(COc2cc(OCc3cncc(C#N)c3)c(CN[C@@](C)(CO)C(=O)O)cc2Cl)cccc1-c1cccc(OCCCN2CC[C@@H](O)C2)c1C(F)F` [Example 1514, (S)-2-((5-chloro-2-((5-cyanopyridin-3-yl)methoxy)-4-((2′-(difluoromethyl)-3′-(3-((R)-3-hydroxypyrrolidin-1-yl)propoxy)-2-methyl-[1,1′-biphenyl]-3-yl)methoxy)benzyl)amino)-3-hydroxy-2-methylpropanoic acid], the concentration for half-maximal inhibition (IC50) (value given as range class) fell in the range of 0.21 to 10 nM.
On the same count and under the same terms, for `Cc1c(COc2cc(OCc3cncc(C#N)c3)c(CO)cc2Cl)cccc1-c1cccc(OCCCN2CC[C@@H](O)C2)c1C(F)F` [Example 1515, (R)-5-((4-chloro-5-((2′-(difluoromethyl)-3′-(3-(3-hydroxypyrrolidin-1-yl)propoxy)-2-methyl-[1,1′-biphenyl]-3-yl)methoxy)-2-(hydroxymethyl)phenoxy)methyl)nicotinonitrile] the value was 10 to 100 nM.
